15 compounds from patent US10703748B2, “Diazanaphthalen-3-yl carboxamides and preparation and use thereof” (Samumed, LLC, priority 2017, dated 2020) can be followed below.

For orientation: EC50 means the midpoint of the concentration-response curve.

The test system of assay [1] is SW480 colon carcinoma cells. The assay is described as follows: Cell viability assay (CellTiter-Glo). To be noted: Homo sapiens; for EC50: SW480, 96 h; for inhibition at 10 µM: SW480, read-out: percent inhibition at 10 μM. A general note: In ATP-based viability assays light output follows the ATP content of the culture.
A further assay has as its target GSK3β kinase (Homo sapiens, UniProt P49841). As to the kind of experiment: GSK3β kinase activity (Ser/Thr 09 peptide Z-lyte FRET assay). Format: biochemical. To be noted: recombinant kinase, 46 μM ATP, one hour at room temperature; read-out: EC50.
The subject of another assay is IL-6. As to the kind of experiment: IL-6 inhibition in LPS-stimulated human peripheral blood mononuclear cells (HTRF). To be noted: Homo sapiens, PBMC; for EC50: 22 h; for inhibition at 10 µM: read-out: percentage in parentheses after EC50 >10. For orientation: In TR-FRET formats the signal depends on donor and acceptor labels being close together.
Assay [2] concerns Wnt-responsive Sp5-Luc reporter in SW480 colon carcinoma cells. As to the kind of experiment: Screening assay for Wnt activity (Sp5-Luc reporter gene assay). To be noted: Homo sapiens; for EC50: SW480; for inhibition at 10 µM: SW480, read-out: percent inhibition at 10 μM. Background: Reporter assays use an easily measured gene product as a stand-in for the process of interest.
Assay [3] concerns α-smooth muscle actin (aSMA) positive LL29 cells. As to the kind of experiment: Inhibition of the fibrotic process: αSMA staining in TGF-β1 treated LL29 fibroblasts from IPF patients. To be noted: Homo sapiens, Fibroblast; for EC50: 96 h; for inhibition at 10 µM: read-out: percentage in parentheses after EC50 >10.
The test system of assay [4] is secreted cytokines TNFα, IL-6 and KC-GRO. As to the kind of experiment: Secreted cytokines in Lipopolysaccharide-stimulated BV-2 cells (Table 9 does not say which cytokine). Format: cell-based, mouse. To be noted: Mus musculus, BV-2, 5 h; read-out: EC50.
For the next assay, the target named is DYRK1A kinase (Homo sapiens, UniProt Q13627). The assay is described as follows: DYRK1A kinase activity (Ser/Thr 18 peptide Z-lyte FRET assay).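 Further: kinase activity read as coumarin/fluorescein emission ratio after development step, with unphosphorylated and phosphorylated peptide forms setting 0% and 100% controls, values from dose-response curves.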 To be noted: recombinant DYRK1A, 30 μM ATP, one hour at room temperature. In kind it is biochemical.

Chain of GSK3β kinase (P49841 whole entry): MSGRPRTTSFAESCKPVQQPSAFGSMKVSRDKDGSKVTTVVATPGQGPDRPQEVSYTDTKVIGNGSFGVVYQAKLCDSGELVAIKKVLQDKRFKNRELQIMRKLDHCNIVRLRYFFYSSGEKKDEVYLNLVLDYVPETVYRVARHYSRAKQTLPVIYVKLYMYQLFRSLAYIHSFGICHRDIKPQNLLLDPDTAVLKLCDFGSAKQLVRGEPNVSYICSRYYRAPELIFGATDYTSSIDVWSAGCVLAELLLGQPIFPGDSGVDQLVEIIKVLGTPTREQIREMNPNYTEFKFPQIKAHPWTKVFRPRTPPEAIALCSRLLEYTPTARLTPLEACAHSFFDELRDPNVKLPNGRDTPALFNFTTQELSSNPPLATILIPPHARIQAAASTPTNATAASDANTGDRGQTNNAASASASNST

Regarding `O=C(Nc1cc2cc(-c3cncc(NC4CCNCC4)n3)cnc2cn1)C1CCOCC1` [Compound 3597, N-(3-(6-(Piperidin-4-ylamino)pyrazin-2-yl)-1,7-naphthyridin-6-yl) tetrahydro-2H-pyran-4-carboxamide], the EC50 in assay [1] was greater than 10 µM; on GSK3β kinase, greater than 10000 nM; in the assay with IL-6, greater than 10 µM; in assay [2] it was greater than 10000 nM; in assay [3], greater than 10 µM; in assay [4], no less than 10000 nM. Further, on DYRK1A kinase, the EC50 was determined as 6 nM. Also, the inhibition at 10 µM in assay [1] stood at 8.1%; in the assay on IL-6 it was 0%; in assay [2] it was 7.6%; in assay [3], 7.7%.
As for `O=C(Nc1cc2cc(-c3cncc(N[C@H]4CCNC[C@@H]4F)n3)cnc2cn1)C1CC1` [Compound 3599, N-(3-(6-(((3S,4S)-3-Fluoropiperidin-4-yl)amino)pyrazin-2-yl)-1,7-naphthyridin-6-yl)cyclopropanecarboxamide], the EC50 in assay [1] was 8.85 µM; on GSK3β kinase it was 780 nM; in the assay with IL-6, greater than 10 µM; in assay [2], greater than 10000 nM; in assay [3] it was 3.01 µM; in assay [4], 832 nM. The EC50 at DYRK1A kinase was 8 nM. Besides, the inhibition at 10 µM in the assay with IL-6 stood at 40.1%; in assay [2] it was 41.3%.
For the compound `CN1CCC(n2cc(C(=O)Nc3cc4cc(-c5cncc6[nH]ccc56)cnc4cn3)cn2)CC1` [Compound 3616, N-(3-(1H-Pyrrolo[2,3-c]pyridin-4-yl)-1,7-naphthyridin-6-yl)-1-(1-methylpiperidin-4-yl)-1H-pyrazole-4-carboxamide], the EC50 in assay [1] was 0.504 µM; at GSK3β kinase, greater than 10000 nM; in the assay with IL-6, 2.37 µM; in assay [2], 485 nM; in assay [3] it was 3.16 µM; in assay [4] it was 1200 nM. The EC50 on DYRK1A kinase was determined as 29 nM.
Turning to `CC(C)n1cc(C(=O)Nc2cc3cc(-c4cncc(NC5CCN(C)CC5)n4)cnc3cn2)cn1` [Compound 3627, 1-Isopropyl-N-(3-(6-((1-methylpiperidin-4-yl)amino)pyrazin-2-yl)-1,7-naphthyridin-6-yl)-1H-pyrazole-4-carboxamide], the EC50 in assay [1] is 3.42 µM; at GSK3β kinase it was greater than 10000 nM; in the assay with IL-6, greater than 10 µM; in assay [2], 1680 nM; in assay [3] it was greater than 10 µM; in assay [4], 708 nM. In addition, the EC50 on DYRK1A kinase amounted to 7 nM. Besides, the inhibition at 10 µM in the assay with IL-6 is 10.6%; in assay [3], 33.4%.
With `CN1CCN(c2cc(C(=O)Nc3cc4cc(-c5cnn(C)c5)ncc4cn3)ccn2)CC1` [Compound 3774, N-(6-(1-Methyl-1H-pyrazol-4-yl)-2,7-naphthyridin-3-yl)-2-(4-methylpiperazin-1-yl)isonicotinamide], the EC50 in assay [1] is 9.64 µM; at GSK3β kinase, 397 nM; in the assay with IL-6, greater than 10 µM; in assay [2], greater than 10000 nM; in assay [3] it was 5.86 µM; in assay [4] it was 972 nM. For the same compound, on DYRK1A kinase, the EC50 came to 10 nM. Besides, the results for the inhibition at 10 µM (with IL-6; in assay [2]) were 10.8% and 54.7%, respectively.
As for `CN1CCN(c2ccc(C(=O)Nc3cc4cc(-c5cnn(C)c5)ncc4cn3)cn2)CC1` [Compound 3778, N-(6-(1-Methyl-1H-pyrazol-4-yl)-2,7-naphthyridin-3-yl)-6-(4-methylpiperazin-1-yl)nicotinamide], the EC50 in assay [1] is 7.72 µM; at GSK3β kinase, 187 nM; in the assay on IL-6, greater than 10 µM; in assay [2], 3970 nM; in assay [3] it was 0.694 µM; in assay [4], 720 nM. Also, on DYRK1A kinase, the EC50 was determined as 4 nM. Also, the inhibition at 10 µM in the assay with IL-6 worked out at 4.2%.
For the compound `CN1CCC(Nc2cncc(C(=O)Nc3cc4cc(-c5cnn(C)c5)ncc4cn3)c2)CC1` [Compound 3783, N-(6-(1-Methyl-1H-pyrazol-4-yl)-2,7-naphthyridin-3-yl)-5-((1-methylpiperidin-4-yl)amino)nicotinamide], the EC50 was 1.97 µM in assay [1]; 2340 nM at GSK3β kinase; greater than 10 µM in the assay on IL-6; 1080 nM in assay [2]; 2.1 µM in assay [3]; 5300 nM in assay [4]. In addition, the EC50 at DYRK1A kinase was found to be 4 nM. Besides, the inhibition at 10 µM with IL-6 amounted to 1.7%.
In the case of `CN(C)CCNc1cc(C(=O)Nc2cc3cc(-c4cnn(C)c4)ncc3cn2)ccn1` [Compound 3791, 2-((2-(Dimethylamino)ethyl)amino)-N-(6-(1-methyl-1H-pyrazol-4-yl)-2,7-naphthyridin-3-yl)isonicotinamide], the EC50 in assay [1] was 3.42 µM; at GSK3β kinase, 1350 nM; with IL-6, greater than 10 µM; in assay [2], 482 nM; in assay [3] it was 4.95 µM; in assay [4], 3900 nM. Besides, the EC50 at DYRK1A kinase worked out at 10 nM. Also, the inhibition at 10 µM with IL-6 worked out at 0%.
Take `CN(C)Cc1ccc(C(=O)Nc2cc3cc(-c4cnn(C)c4)ncc3cn2)cc1` [Compound 3797, 4-((Dimethylamino)methyl)-N-(6-(1-methyl-1H-pyrazol-4-yl)-2,7-naphthyridin-3-yl)benzamide]: the EC50 in assay [1] is 7.02 µM; on GSK3β kinase, 409 nM; in the assay with IL-6, greater than 10 µM; in assay [2] it was 427 nM; in assay [3], 2.7 µM; in assay [4] it was 54 nM. Also, the half-maximal effective concentration (EC50) at DYRK1A kinase stood at 8 nM. The inhibition at 10 µM in the assay with IL-6 amounted to 7%.
Turning to `CN1CCc2ccc(C(=O)Nc3cc4cc(-c5cnn(C)c5)ncc4cn3)cc2C1` [Compound 3829, 2-Methyl-N-(6-(1-methyl-1H-pyrazol-4-yl)-2,7-naphthyridin-3-yl)-1,2,3,4-tetrahydroisoquinoline-7-carboxamide], the EC50 in assay [1] is 9.32 µM; at GSK3β kinase, 763 nM; in the assay with IL-6 it was greater than 10 µM; in assay [2], 994 nM; in assay [3], 0.759 µM; in assay [4] it was 533 nM. The EC50 at DYRK1A kinase came out at 10 nM. The inhibition at 10 µM with IL-6 was 5.3%.
Consider `Cn1cc(-c2cc3cc(NC(=O)c4ccc5ccoc5c4)ncc3cn2)cn1` [Compound 3836, N-(6-(1-Methyl-1H-pyrazol-4-yl)-2,7-naphthyridin-3-yl)benzofuran-6-carboxamide], for which the EC50 was greater than 10 µM in assay [1]; 1470 nM at GSK3β kinase; greater than 10 µM in the assay with IL-6; 220 nM in assay [2]; greater than 10 µM in assay [3]; 1000 nM in assay [4]. Further, the EC50 at DYRK1A kinase is 5 nM. For the same compound, the inhibition at 10 µM in assay [1] was 33.9%; in the assay with IL-6, 1.4%; in assay [3], 10%.
For `Cn1cc(-c2cc3cc(NC(=O)c4ccc5nccnc5c4)ncc3cn2)cn1` [Compound 3843, N-(6-(1-Methyl-1H-pyrazol-4-yl)-2,7-naphthyridin-3-yl)quinoxaline-6-carboxamide], the EC50 in assay [1] was greater than 10 µM; at GSK3β kinase, 1160 nM; in the assay with IL-6, greater than 10 µM; in assay [2] it was greater than 10000 nM; in assay [3], 1.28 µM; in assay [4], no less than 10000 nM. The EC50 on DYRK1A kinase came to 6 nM. The figures for the inhibition at 10 µM (in assay [1]; in the assay with IL-6; in assay [2]) were 14%, 6.8% and 25%, respectively.
In the case of `CN1CCC(n2cc(C(=O)Nc3cc4cc(-c5cnn(C)c5)ncc4cn3)cn2)CC1` [Compound 3856, N-(6-(1-Methyl-1H-pyrazol-4-yl)-2,7-naphthyridin-3-yl)-1-(1-methylpiperidin-4-yl)-1H-pyrazole-4-carboxamide], the EC50 in assay [1] is 0.446 µM; at GSK3β kinase, 1750 nM; in the assay with IL-6, 3.99 µM; in assay [2] it was 367 nM; in assay [3] it was greater than 10 µM; in assay [4], 194 nM. Further, the EC50 on DYRK1A kinase is 10 nM. The inhibition at 10 µM in assay [3] stood at 17.5%.
Regarding `CC(C)OC(=O)N1CCC(n2cc(C(=O)Nc3cc4cc(-c5cnn(C)c5)ncc4cn3)cn2)CC1` [Compound 3861, Isopropyl 4-(4-((6-(1-methyl-1H-pyrazol-4-yl)-2,7-naphthyridin-3-yl)carbamoyl)-1H-pyrazol-1-yl)piperidine-1-carboxylate], the EC50 in assay [1] is 0.933 µM; on GSK3β kinase, 1060 nM; with IL-6, greater than 10 µM; in assay [2], 824 nM; in assay [3] it was 0.597 µM; in assay [4] it was 343 nM. Also, the EC50 at DYRK1A kinase turned out to be 5 nM. For the same compound, in the assay on IL-6, the inhibition at 10 µM was 5.8%.
Turning to `Cc1ncc(C(=O)Nc2cc3cc(-c4cnc(C)n4C)ncc3cn2)s1` [Compound 4074, N-(6-(1,2-Dimethyl-1H-imidazol-5-yl)-2,7-naphthyridin-3-yl)-2-methylthiazole-5-carboxamide], the EC50 in assay [1] was 2.31 µM; at GSK3β kinase it was 416 nM; in the assay on IL-6, greater than 10 µM; in assay [2] it was 2690 nM; in assay [3], 3.19 µM; in assay [4], 300 nM. Moreover, at DYRK1A kinase, the EC50 came out at 7 nM. In addition, the inhibition at 10 µM in the assay on IL-6 is 14%.
